# According to patent US20260241049A1, “Radiopharmaceutical Compositions Targeting Glypican-3 and Uses Thereof” (RayzeBio, Inc., priority 2023, published 2026):
# Starred links: 1 amine or outer side, 2 acyl side, 3 side chain; linkers in the order of their positions; H or OH if unused. Positions of bridges follow the written chain, without caps; N, C: chain ends. Non-standard residues stand in square brackets, D forms with d. Residues, ends and D or L forms follow the SMILES beside them. Groups on a side chain read outwards from the residue. Primed or numbered codes have the meaning given here. *: point of attachment. MeHseMe″ = (2S)-4-methoxy-2-(methylamino)butanoic acid (N-methyl-O-methyl-L-homoserine), COCC[C@@H](C(=O)[*:2])N(C)[*:1]; F4aao = 4-(carboxymethoxy)-L-phenylalanine, O=C([C@H](Cc1ccc(OCC(=O)[*:3])cc1)N[*:1])[*:2]; MeHseMe = N-methyl-O-methyl-L-homoserine, COCC[C@@H](C(=O)[*:2])N(C)[*:1]; Phe(4-(1-Me-pyrazol-4-yl)) = Cn1cc(-c2ccc(C[C@H](N)C(=O)O)cc2)cn1; SulfoCy5″ = sulfo-Cyanine5 hexanoyl dye as amide on the lysine NZ; TMe = O-methyl-L-threonine, CO[C@H](C)[C@H](N[*:1])C(=O)[*:2]; NMeAla(isoquinolin-7-yl) = CN[C@@H](Cc1ccc2ccncc2c1)C(=O)O; SulfoCy5(3) = sulfo-Cyanine5 hexanoyl dye on the lysine NZ; DOTA = O=C(O)CN1CCN(CC(=O)O)CCN(CC(=O)*)CCN(CC(=O)O)CC1; PEG12 = NCCOCCOCCOCCOCCOCCOCCOCCOCCOCCOCCOCCOCCC(=O)O; Phe(4-CH2COOH) = N[C@@H](Cc1ccc(CC(=O)O)cc1)C(=O)O; X2 = CN([C@@H](CC1CCN(CC(=O)O)CC1)C(=O)[*:2])[*:1]; 3Pal(6-Ph) = N[C@@H](Cc1ccc(-c2ccccc2)nc1)C(=O)O; Biotin = O=C1N[C@H]2[C@H](CS[C@H]2CCCCC(=O)*)N1; Phe(4-COOH) = N[C@@H](Cc1ccc(C(=O)O)cc1)C(=O)O; Piperazinyl(4-CH2COOH) = O=C(O)CN1CCN(*)CC1; NMe2Nal = CN[C@@H](Cc1ccc2ccccc2c1)C(=O)O; AEF = NCCOc1ccc(C[C@H](N)C(=O)O)cc1; NMeI = CC[C@H](C)[C@H](NC)C(=O)O; NMeQ = CN[C@@H](CCC(N)=O)C(=O)O; NMehSer = CN[C@@H](CCO)C(=O)O; NMeK = CN[C@@H](CCCCN)C(=O)O; NMeDap = CN[C@@H](CN)C(=O)O; NMeC = CN[C@@H](CS)C(=O)O; Carboxymethyl = O=C(O)C*; NMeA = CN[C@@H](C)C(=O)O; CO = O=C([*:1])[*:2]
# B1: PLB-60 (peptide)
# peptide: KIDQFIIYFGXCG
# modifications: not fully specified; MeKAc-MeI-D-MeQ-F4COO-I-I-Y-MeNal27N-G-3Py6Ph-MeC-G-PEG12c-K(biotin)-NH2 by Table 13 (Table 1 prints PEG10c and K at positions 14 and 15 of SEQ ID No. 60); thioether ring from N-terminal acetyl to MeC12
# notes: Biotin on the C-terminal tail outside the ring
# B2: PLB-30 (peptide)
# peptide: {CH2CO}-[NMeK]([PEG12-Biotin])[NMeI]D[NMeQ][Phe(4-COOH)][TMe]I[F4aao][NMeAla(isoquinolin-7-yl)]G[3Pal(6-Ph)][NMeC]-NH2
# modifications: thioether N-12
# SMILES: CC[C@H](C)[C@@H]1NC(=O)[C@H]([C@@H](C)OC)NC(=O)[C@H](Cc2ccc(C(=O)O)cc2)NC(=O)[C@H](CCC(N)=O)N(C)C(=O)[C@H](CC(=O)O)NC(=O)[C@H]([C@@H](C)CC)N(C)C(=O)[C@H](CCCCNC(=O)CCOCCOCCOCCOCCOCCOCCOCCOCCOCCOCCOCCOCCNC(=O)CCCC[C@@H]2SC[C@@H]3NC(=O)N[C@@H]32)N(C)C(=O)CSC[C@@H](C(N)=O)N(C)C(=O)[C@H](Cc2ccc(-c3ccccc3)nc2)NC(=O)CNC(=O)[C@H](Cc2ccc3ccncc3c2)N(C)C(=O)[C@H](Cc2ccc(OCC(=O)O)cc2)NC1=O
# B3: PLD-45 (peptide)
# peptide: {CH2CO}-K[MeHseMe]D[NMeQ][Phe(4-COOH)][TMe]IY[NMeAla(isoquinolin-7-yl)]G[3Pal(6-Ph)][NMeC]-NH2
# modifications: thioether N-12; not fully specified (residue 1); printed as MeK-MeHseMe-D-MeQ-F4COO-TMe-I-Y-MeNal27N-G-3Py6Ph-MeC-NH2
# notes: SulfoCy5 conjugate
# Biological target: T1, Human Glypican3-Fc (ACRO Biosystems, GP3-H5258) (human, UniProt P51654 25-559)
# T1 construct: Bought fusion protein, captured in Methods B-2, B-3 and B-4; Catalogue number is printed only in Method B-2; not shown: Fc part of the bought fusion
# Assay: SPR (Biacore T200), Method B-3: Glypican3-Fc captured on Protein A chip, peptide as analyte
# Settings: not given
# Outline: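 Human Glypican3-Fc was captured on a Protein A chip (60 s, 10 μL/min) in HBS-P+ pH 7.4. The peptide was injected as analyte at a final 10 μM at 10 μL/min, with 120 s association and 600 s dissociation. Kinetics were fitted by single-cycle kinetics.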
row,Molecule,Kd
1,B1,0.11 nM
2,B2,0.75 nM
3,{CH2CO}-[NMeA][MeHseMe″]D[NMeQ][Phe(4-COOH)][TMe]I[AEF][NMe2Nal]G[3Pal(6-Ph)][NMeC]-NH2 (thioether N-12; not fully specified (residue 8)) [Mod3],0.9 nM
4,B3,0.88 nM
5,{CH2CO}-[NMeK](SulfoCy5(3))[MeHseMe]D[NMeQ][Phe(4-COOH)][TMe]I[F4aao][NMeAla(isoquinolin-7-yl)]G[3Pal(6-Ph)][NMeC]-NH2 (thioether N-12) [Mod7],4.2 nM
6,{CH2CO}-[NMeK](SulfoCy5″)[NMeI]D[NMeQ][Phe(4-COOH)][TMe]I[F4aao][NMeAla(isoquinolin-7-yl)]G[3Pal(6-Ph)][NMeC]-NH2 (thioether N-12) [PLD-30],1.08 nM

# Biological target: Human Glypican3-Fc (Homo sapiens, UniProt P51654)
# Assay: SPR binding to Glypican-3, Method B-3 (Glypican3-Fc captured on Protein A chip, 5-point dilution series)
# Settings: SPR method B-3
# Procedure: A Protein A sensor chip (Cytiva) was inserted into a Biacore T200 (Cytiva), priming was performed three times with a running buffer: HBS-P+, pH 7.4 (Cytiva), and equilibration was carried out at a flow rate of 30 μL/min. Glypican3-Fc was allowed to react for 60 seconds at a flow rate of 10 μL/min. After capturing human Glypican3-Fe, a peptide solution prepared to 10 mM in DMSO solution was diluted with a running buffer to a final concentration of 10 μM. After that, 5 serial dilution series (100 nM, 50 nM, 25 nM, 10 nM, 5 nM) of peptide solutions were prepared. Using the above samples, peptide kinetics for Glypican3 was obtained by SPR measurement. Kinetics evaluation of Glypican3 was performed by SPR measurements at a flow rate of 10 LL/min, setting the association time to 120 seconds and the disassociation time to 600 seconds.
# The obtained data by Method B-1, Method B-2, Method B-3 and Method B-4 were analyzed by follow. Single Cycle Kinetics was used as the kinetics evaluation model, and curve fitting was performed using Biacore T200 Evaluation Software Version 3.0 (Cytiva).
row,Molecule,Kd
1,CC[C@H](C)[C@@H]1NC(=O)[C@H]([C@@H](C)OC)NC(=O)[C@H](Cc2ccc(C(=O)O)cc2)NC(=O)[C@H](CNC(=O)N2CCN(CC(=O)O)CC2)N(C)C(=O)[C@H](CC(=O)O)NC(=O)[C@H](CCOC)N(C)C(=O)[C@H](CNC(=O)N2CCN(CC(=O)O)CC2)N(C)C(=O)CSC[C@@H](C(N)=O)N(C)C(=O)[C@H](Cc2ccc(-c3ccccc3)nc2)NC(=O)CNC(=O)[C@H](Cc2ccc3ccccc3c2)N(C)C(=O)[C@H](Cc2ccc(OCCN)cc2)NC1=O [Conjugate 2-33] ({CH2CO}-[NMeDap]([CO-Piperazinyl(4-CH2COOH)])[NMehSer](Me)D[NMeDap]([CO-Piperazinyl(4-CH2COOH)])[Phe(4-COOH)]T(Me)I[AEF][NMe2Nal]G[3Pal(6-Ph)][NMeC]-NH2; thioether N-12 (inferred)),0.3 nM
2,CC[C@H](C)[C@@H]1NC(=O)[C@H]([C@@H](C)OC)NC(=O)[C@H](Cc2ccc(C(=O)O)cc2)NC(=O)[C@H](CNC(=O)N2CCN(CC(=O)O)CC2)N(C)C(=O)[C@H](CC(=O)O)NC(=O)[C@H](CCOC)N(C)C(=O)[C@H](CCCCNC(=O)N2CCN(CC(=O)O)CC2)N(C)C(=O)SCC[C@@H](C(N)=O)N(C)C(=O)[C@H](Cc2ccc(-c3ccccc3)nc2)NC(=O)CNC(=O)[C@H](Cc2ccc3ccncc3c2)N(C)C(=O)[C@H](Cc2ccc(OCCN)cc2)NC1=O [Conjugate 2-38],1.8 nM
3,CC[C@H](C)[C@@H]1NC(=O)[C@H](Cc2ccc(C(=O)O)cc2)NC(=O)[C@H](CCC(N)=O)N(C)C(=O)[C@H](CC(=O)O)NC(=O)[C@H](CCOC)N(C)C(=O)[C@H](CCCCN)N(C)C(=O)CSC[C@@H](C(N)=O)N(C)C(=O)[C@H](Cc2ccc(-c3cnn(C)c3)cc2)NC(=O)CNC(=O)[C@H](Cc2ccc3ccccc3c2)N(C)C(=O)[C@H](Cc2ccc(CC(=O)O)cc2)NC(=O)[C@H]([C@@H](C)CC)NC1=O [Conjugate 2-48] ({CH2CO}-[NMeK][NMehSer](Me)D[NMeQ][Phe(4-COOH)]II[Phe(4-CH2COOH)][NMe2Nal]G[Phe(4-(1-Me-pyrazol-4-yl))][NMeC]-NH2; thioether N-12),0.5 nM
4,CC[C@H](C)[C@@H]1NC(=O)[C@H](Cc2ccc(C(=O)O)cc2)NC(=O)[C@H](CCCCN)N(C)C(=O)[C@H](CC(=O)O)NC(=O)[C@H](CCC(N)=O)N(C)C(=O)[C@H](CCC(N)=O)N(C)C(=O)CSC[C@@H](C(N)=O)N(C)C(=O)[C@H](Cc2ccc(-c3cnn(C)c3)cc2)NC(=O)CNC(=O)[C@H](Cc2ccc3ccccc3c2)N(C)C(=O)[C@H](Cc2ccc(CC(=O)O)cc2)NC(=O)[C@H]([C@@H](C)CC)NC1=O [Conjugate 2-52] ({CH2CO}-[NMeQ][NMeQ]D[NMeK][Phe(4-COOH)]II[Phe(4-CH2COOH)][NMe2Nal]G[Phe(4-(1-Me-pyrazol-4-yl))][NMeC]-NH2; thioether N-12),1.6 nM
5,CC[C@H](C)[C@@H]1NC(=O)[C@H](Cc2ccc(C(=O)O)cc2)NC(=O)[C@H](CCC(N)=O)N(C)C(=O)[C@H](CC(=O)O)NC(=O)[C@H]([C@@H](C)CC)N(C)C(=O)[C@H](CCCCNC(C)=O)N(C)C(=O)CSC[C@@H](C(N)=O)N(C)C(=O)[C@H](Cc2ccc(-c3ccccc3)nc2)NC(=O)CNC(=O)[C@H](Cc2ccc3ccncc3c2)N(C)C(=O)[C@H](Cc2ccc(O)cc2)NC(=O)[C@H]([C@@H](C)CC)NC1=O [Conjugate 2-4] ({CH2CO}-[NMeK](Ac)[NMeI]D[NMeQ][Phe(4-COOH)]IIY[NMeAla(isoquinolin-7-yl)]G[3Pal(6-Ph)][NMeC]-NH2; thioether N-12),0.3 nM
6,CC[C@H](C)[C@@H]1NC(=O)[C@H]([C@@H](C)OC)NC(=O)[C@H](Cc2ccc(C(=O)O)cc2)NC(=O)[C@H](CCC(N)=O)N(C)C(=O)[C@H](CC(=O)O)NC(=O)[C@H](CCOC)N(C)C(=O)[C@H](CCCCNC(=O)CN2CCN(CC(=O)O)CCN(CC(=O)O)CCN(CC(=O)O)CC2)N(C)C(=O)CSC[C@@H](C(N)=O)N(C)C(=O)[C@H](Cc2ccc(-c3ccccc3)nc2)NC(=O)CNC(=O)[C@H](Cc2ccc3ccncc3c2)N(C)C(=O)[C@H](Cc2ccc(OCC(=O)O)cc2)NC1=O [Lu-C-63] ({CH2CO}-[NMeK](DOTA)[NMehSer](Me)D[NMeQ][Phe(4-COOH)]T(Me)IY(Carboxymethyl)[NMeAla(isoquinolin-7-yl)]G[3Pal(6-Ph)][NMeC]-NH2; thioether N-12),1.6 nM
7,CC[C@H](C)[C@@H]1NC(=O)[C@H]([C@@H](C)OC)NC(=O)[C@H](Cc2ccc(C(=O)O)cc2)NC(=O)[C@H](CNC(=O)N2CCN(CC(=O)O)CC2)N(C)C(=O)[C@H](CC(=O)O)NC(=O)[C@H](CCOC)N(C)C(=O)[C@H](CNC(=O)N2CCN(CC(=O)O)CC2)N(C)C(=O)CSC[C@@H](C(N)=O)N(C)C(=O)[C@H](Cc2ccc(-c3ccccc3)nc2)NC(=O)CNC(=O)[C@H](Cc2ccc3ccncc3c2)N(C)C(=O)[C@H](Cc2ccc(OCCN)cc2)NC1=O [Conjugate 2-37] ({CH2CO}-[NMeDap]([CO-Piperazinyl(4-CH2COOH)])[NMehSer](Me)D[NMeDap]([CO-Piperazinyl(4-CH2COOH)])[Phe(4-COOH)]T(Me)I[AEF][NMeAla(isoquinolin-7-yl)]G[3Pal(6-Ph)][NMeC]-NH2; thioether N-12 (inferred)),1 nM
8,CC[C@H](C)[C@@H]1NC(=O)[C@H](Cc2ccc(C(=O)O)cc2)NC(=O)[C@H](CCC(N)=O)N(C)C(=O)[C@H](CCC(N)=O)NC(=O)[C@H]([C@@H](C)CC)N(C)C(=O)[C@H](CCCCN)N(C)C(=O)CSC[C@@H](C(N)=O)N(C)C(=O)[C@H](Cc2ccc(-c3cnn(C)c3)cc2)NC(=O)CNC(=O)[C@H](Cc2ccc3ccccc3c2)N(C)C(=O)[C@H](Cc2ccc(C(=O)O)cc2)NC(=O)[C@H]([C@@H](C)CC)NC1=O [Conjugate 2-46] ({CH2CO}-[NMeK][NMeI]Q[NMeQ][Phe(4-COOH)]II[Phe(4-COOH)][NMe2Nal]G[Phe(4-(1-Me-pyrazol-4-yl))][NMeC]-NH2; thioether N-12),0.2 nM
9,CC[C@H](C)[C@@H]1NC(=O)[C@H]([C@@H](C)OC)NC(=O)[C@H](Cc2ccc(C(=O)O)cc2)NC(=O)[C@H](CC2CCN(CC(=O)O)CC2)N(C)C(=O)[C@H](CC(=O)O)NC(=O)[C@H](CCC(N)=O)N(C)C(=O)[C@H](CCCCN)N(C)C(=O)CSC[C@@H](C(N)=O)N(C)C(=O)[C@H](Cc2ccc(-c3cnn(C)c3)cc2)NC(=O)CNC(=O)[C@H](Cc2ccc3ccccc3c2)N(C)C(=O)[C@H](Cc2ccc(CC(=O)O)cc2)NC1=O [Conjugate 2-51] ({CH2CO}-[NMeK][NMeQ]D[X2][Phe(4-COOH)]T(Me)I[Phe(4-CH2COOH)][NMe2Nal]G[Phe(4-(1-Me-pyrazol-4-yl))][NMeC]-NH2; thioether N-12),2.5 nM
